Measurements published in ChEMBL document CHEMBL5291721, “A preclinical secondary pharmacology resource illuminates target-adverse drug reaction associations of marketed drugs” (Nat Commun, 2023).

Assays:
Estrogen receptor = target: T1, Estrogen receptor (Homo sapiens, UniProt P03372); format: functional
T1 sequence (P03372 whole entry): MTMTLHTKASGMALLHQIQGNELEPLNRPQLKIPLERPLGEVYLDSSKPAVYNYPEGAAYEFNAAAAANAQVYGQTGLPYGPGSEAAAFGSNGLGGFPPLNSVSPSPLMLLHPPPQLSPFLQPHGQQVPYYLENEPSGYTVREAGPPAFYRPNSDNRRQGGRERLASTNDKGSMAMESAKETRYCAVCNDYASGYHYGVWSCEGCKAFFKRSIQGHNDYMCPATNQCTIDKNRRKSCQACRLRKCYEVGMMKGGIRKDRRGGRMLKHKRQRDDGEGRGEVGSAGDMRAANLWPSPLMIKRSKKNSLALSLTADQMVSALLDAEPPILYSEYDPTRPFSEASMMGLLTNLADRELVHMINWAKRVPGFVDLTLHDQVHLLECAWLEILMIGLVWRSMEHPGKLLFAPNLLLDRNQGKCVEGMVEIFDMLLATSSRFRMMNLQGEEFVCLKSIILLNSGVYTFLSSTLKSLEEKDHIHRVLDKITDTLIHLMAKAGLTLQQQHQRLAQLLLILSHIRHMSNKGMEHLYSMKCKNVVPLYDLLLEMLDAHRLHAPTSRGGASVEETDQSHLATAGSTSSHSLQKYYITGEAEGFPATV

Androgen receptor [1] = target: T2, Androgen receptor (Rattus norvegicus, UniProt P15207); format: functional
T2 sequence (P15207 whole entry): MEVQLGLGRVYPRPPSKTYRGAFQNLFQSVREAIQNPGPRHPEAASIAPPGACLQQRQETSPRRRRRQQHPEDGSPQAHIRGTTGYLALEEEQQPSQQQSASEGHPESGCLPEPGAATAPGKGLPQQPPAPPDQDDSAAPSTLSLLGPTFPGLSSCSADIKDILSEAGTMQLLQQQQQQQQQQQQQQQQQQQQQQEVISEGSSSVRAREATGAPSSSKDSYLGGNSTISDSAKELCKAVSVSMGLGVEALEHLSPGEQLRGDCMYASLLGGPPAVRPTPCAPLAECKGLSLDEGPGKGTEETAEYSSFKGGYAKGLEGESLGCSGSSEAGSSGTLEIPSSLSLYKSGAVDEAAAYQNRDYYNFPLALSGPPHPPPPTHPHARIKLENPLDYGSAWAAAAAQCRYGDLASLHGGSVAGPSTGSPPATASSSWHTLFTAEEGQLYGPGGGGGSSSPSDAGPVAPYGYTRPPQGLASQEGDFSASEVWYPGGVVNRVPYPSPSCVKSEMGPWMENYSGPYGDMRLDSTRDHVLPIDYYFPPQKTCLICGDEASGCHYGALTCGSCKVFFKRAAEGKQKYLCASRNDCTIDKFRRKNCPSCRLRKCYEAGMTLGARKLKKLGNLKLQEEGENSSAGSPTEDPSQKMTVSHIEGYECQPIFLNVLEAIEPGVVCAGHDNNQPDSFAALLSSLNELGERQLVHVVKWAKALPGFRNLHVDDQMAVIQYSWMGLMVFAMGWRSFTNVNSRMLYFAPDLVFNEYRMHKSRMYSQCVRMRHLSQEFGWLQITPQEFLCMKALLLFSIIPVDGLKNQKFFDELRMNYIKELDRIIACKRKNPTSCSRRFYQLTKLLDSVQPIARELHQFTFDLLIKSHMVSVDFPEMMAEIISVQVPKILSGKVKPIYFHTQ

Androgen receptor [2] = target: T2, Androgen receptor; format: functional; remark: listed apart in the source
[3] = target: Receptor tyrosine-protein kinase erbB-2 (Homo sapiens, UniProt P04626); format: functional
[4] = target: Vascular endothelial growth factor receptor 2 (Homo sapiens, UniProt P35968); format: functional
[5] = target: Voltage-dependent L-type calcium channel subunit alpha-1C (Homo sapiens, UniProt Q13936); format: functional, cell-based
[6] = target: Gamma-aminobutyric acid type B receptor subunit 1 (Homo sapiens, UniProt Q9UBS5)
[7] = target: 5-hydroxytryptamine receptor 5A (Homo sapiens, UniProt P47898)
Androgen receptor [8] = target: T2, Androgen receptor
[9] = target: T3, 5-hydroxytryptamine receptor 1A (Homo sapiens, UniProt P08908)
T3 sequence (P08908 whole entry): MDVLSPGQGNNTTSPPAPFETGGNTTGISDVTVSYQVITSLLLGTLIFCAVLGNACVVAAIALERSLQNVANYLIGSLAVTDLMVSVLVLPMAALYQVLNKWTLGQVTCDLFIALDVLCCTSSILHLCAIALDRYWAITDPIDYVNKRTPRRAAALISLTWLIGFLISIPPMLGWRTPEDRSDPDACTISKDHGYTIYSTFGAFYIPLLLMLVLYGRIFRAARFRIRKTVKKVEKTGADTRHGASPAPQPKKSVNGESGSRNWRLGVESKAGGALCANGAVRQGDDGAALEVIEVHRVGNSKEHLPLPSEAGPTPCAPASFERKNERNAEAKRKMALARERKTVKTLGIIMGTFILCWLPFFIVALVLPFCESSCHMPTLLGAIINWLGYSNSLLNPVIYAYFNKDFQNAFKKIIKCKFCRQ

[10] = target: T4, Peroxisome proliferator-activated receptor alpha (Homo sapiens, UniProt Q07869); format: functional
T4 sequence (Q07869 whole entry): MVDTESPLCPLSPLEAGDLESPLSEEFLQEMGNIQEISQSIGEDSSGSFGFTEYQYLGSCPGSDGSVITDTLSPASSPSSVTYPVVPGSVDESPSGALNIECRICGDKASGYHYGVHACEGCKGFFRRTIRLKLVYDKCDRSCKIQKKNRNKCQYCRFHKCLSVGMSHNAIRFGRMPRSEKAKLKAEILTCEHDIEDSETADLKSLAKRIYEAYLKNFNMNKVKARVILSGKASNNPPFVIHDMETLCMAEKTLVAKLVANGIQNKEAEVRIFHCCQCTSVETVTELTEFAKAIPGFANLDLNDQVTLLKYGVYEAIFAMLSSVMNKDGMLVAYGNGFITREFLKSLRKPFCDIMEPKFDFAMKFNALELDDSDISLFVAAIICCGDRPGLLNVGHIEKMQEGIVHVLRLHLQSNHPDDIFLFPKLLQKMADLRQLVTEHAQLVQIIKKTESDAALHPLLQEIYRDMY
Also: assay procedure not described here.

Receptor tyrosine-protein kinase erbB-2, sequence (P04626 whole entry): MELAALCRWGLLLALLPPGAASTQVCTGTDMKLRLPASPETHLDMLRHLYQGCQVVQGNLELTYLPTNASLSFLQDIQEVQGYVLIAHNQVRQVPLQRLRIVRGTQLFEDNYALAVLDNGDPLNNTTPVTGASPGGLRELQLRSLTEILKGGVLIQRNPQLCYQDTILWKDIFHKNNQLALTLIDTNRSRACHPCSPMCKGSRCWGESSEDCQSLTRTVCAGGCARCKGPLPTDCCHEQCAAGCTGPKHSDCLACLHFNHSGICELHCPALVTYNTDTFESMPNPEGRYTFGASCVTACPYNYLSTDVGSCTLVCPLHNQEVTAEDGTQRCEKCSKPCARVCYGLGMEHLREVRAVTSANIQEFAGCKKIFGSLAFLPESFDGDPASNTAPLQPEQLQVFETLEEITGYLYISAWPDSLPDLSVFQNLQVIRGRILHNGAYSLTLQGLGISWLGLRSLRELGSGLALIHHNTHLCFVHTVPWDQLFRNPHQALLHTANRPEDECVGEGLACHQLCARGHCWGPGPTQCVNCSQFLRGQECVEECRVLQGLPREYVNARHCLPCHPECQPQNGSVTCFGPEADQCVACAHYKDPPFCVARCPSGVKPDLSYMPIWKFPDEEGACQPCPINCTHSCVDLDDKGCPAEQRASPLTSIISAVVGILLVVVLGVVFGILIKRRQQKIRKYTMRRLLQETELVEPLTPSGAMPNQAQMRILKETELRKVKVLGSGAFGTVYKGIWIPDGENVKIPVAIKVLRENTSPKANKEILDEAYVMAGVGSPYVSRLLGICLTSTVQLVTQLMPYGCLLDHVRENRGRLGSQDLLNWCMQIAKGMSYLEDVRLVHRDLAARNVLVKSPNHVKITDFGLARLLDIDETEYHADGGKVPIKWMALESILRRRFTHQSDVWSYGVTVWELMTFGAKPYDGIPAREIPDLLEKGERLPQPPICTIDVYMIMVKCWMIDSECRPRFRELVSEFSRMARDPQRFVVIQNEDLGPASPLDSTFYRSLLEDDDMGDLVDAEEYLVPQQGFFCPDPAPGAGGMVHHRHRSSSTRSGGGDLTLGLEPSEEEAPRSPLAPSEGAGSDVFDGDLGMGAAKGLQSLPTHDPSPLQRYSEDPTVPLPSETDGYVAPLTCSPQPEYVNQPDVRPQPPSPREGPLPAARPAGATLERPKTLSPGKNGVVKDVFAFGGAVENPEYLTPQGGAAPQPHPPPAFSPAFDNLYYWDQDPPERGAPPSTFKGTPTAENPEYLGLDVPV
Vascular endothelial growth factor receptor 2, sequence (P35968 whole entry): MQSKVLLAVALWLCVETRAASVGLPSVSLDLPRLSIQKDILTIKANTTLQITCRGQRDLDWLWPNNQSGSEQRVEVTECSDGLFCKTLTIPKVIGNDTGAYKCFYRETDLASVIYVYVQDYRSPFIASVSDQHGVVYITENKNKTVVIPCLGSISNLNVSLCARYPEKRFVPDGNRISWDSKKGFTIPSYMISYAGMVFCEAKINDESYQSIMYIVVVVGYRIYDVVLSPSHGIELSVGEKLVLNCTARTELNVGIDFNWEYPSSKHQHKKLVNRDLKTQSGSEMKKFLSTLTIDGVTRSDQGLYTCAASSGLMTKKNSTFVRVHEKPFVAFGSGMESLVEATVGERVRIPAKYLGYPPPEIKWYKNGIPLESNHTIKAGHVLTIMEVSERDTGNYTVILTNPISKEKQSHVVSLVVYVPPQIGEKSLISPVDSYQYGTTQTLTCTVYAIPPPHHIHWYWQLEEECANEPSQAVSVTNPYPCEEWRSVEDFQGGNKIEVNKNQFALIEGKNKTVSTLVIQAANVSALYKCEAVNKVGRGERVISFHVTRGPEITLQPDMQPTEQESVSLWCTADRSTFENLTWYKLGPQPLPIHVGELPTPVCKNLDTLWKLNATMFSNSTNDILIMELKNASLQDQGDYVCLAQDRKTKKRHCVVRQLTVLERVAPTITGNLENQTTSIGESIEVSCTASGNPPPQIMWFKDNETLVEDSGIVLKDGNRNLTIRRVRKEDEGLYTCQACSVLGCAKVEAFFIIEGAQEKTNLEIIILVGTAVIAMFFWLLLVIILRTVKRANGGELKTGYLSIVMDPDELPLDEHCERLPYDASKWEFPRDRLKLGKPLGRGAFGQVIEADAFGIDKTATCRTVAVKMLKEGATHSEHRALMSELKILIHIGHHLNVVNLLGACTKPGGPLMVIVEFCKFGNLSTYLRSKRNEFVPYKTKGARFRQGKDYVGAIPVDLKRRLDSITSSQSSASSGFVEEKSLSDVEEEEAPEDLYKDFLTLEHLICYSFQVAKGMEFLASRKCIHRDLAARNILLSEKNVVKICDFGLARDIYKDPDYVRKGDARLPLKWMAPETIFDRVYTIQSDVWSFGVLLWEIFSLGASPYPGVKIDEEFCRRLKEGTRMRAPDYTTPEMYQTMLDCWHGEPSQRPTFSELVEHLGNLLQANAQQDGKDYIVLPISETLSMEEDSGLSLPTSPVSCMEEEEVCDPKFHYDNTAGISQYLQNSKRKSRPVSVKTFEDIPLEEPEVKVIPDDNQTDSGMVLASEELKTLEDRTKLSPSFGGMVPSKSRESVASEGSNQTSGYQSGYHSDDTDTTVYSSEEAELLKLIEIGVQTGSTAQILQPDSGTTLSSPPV
Gamma-aminobutyric acid type B receptor subunit 1, sequence (Q9UBS5 whole entry): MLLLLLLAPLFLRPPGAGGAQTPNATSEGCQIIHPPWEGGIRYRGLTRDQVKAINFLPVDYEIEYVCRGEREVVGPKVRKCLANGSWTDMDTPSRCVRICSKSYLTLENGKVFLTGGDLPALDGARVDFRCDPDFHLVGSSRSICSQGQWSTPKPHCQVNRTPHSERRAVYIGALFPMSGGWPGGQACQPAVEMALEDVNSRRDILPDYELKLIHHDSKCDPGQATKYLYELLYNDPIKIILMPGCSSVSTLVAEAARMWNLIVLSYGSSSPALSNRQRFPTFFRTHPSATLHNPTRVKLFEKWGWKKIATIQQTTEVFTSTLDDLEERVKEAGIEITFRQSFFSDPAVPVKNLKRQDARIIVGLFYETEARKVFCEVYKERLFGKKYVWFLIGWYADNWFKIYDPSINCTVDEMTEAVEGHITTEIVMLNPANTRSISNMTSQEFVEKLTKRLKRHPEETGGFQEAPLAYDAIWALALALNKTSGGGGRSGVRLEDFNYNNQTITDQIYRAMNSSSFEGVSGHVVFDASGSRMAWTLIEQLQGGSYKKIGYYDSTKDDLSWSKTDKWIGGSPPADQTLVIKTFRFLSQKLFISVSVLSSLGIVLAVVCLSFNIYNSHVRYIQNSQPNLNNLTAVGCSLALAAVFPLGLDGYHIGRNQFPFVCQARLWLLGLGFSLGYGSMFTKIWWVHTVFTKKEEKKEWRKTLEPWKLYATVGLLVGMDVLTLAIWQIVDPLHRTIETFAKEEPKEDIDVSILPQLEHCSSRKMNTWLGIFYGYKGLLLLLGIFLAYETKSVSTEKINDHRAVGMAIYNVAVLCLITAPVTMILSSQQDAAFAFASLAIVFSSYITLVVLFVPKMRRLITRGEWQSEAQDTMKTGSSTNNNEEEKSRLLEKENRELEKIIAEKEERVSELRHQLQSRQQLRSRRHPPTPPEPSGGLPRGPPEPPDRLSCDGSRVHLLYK
5-hydroxytryptamine receptor 5A, sequence (P47898 whole entry): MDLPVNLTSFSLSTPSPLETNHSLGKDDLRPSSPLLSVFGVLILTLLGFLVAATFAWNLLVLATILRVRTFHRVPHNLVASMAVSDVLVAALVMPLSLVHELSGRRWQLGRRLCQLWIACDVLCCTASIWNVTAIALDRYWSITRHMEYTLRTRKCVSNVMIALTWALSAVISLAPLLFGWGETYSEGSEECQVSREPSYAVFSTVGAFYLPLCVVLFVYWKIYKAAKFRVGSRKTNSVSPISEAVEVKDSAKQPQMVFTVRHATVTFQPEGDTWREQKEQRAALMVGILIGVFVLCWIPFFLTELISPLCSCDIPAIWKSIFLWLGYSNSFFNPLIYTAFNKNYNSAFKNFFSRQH

CO/N=C(\C(=O)N[C@@H]1C(=O)N2C(C(=O)[O-])=C(C[N+]3(C)CCCC3)CS[C@H]12)c1csc(N)n1
AC50 (Estrogen receptor): > 300 µM | AC50 (Androgen receptor [1]): > 30 µM | AC50 (Androgen receptor [2]): > 300 µM | AC50 [3]: > 300 µM | AC50 [4]: > 300 µM

COC(=O)N[C@H](C(=O)N1CCC[C@H]1c1nc(-c2ccc(-c3ccc(-c4c[nH]c([C@@H]5CCCN5C(=O)[C@@H](NC(=O)OC)C(C)C)n4)cc3)cc2)c[nH]1)C(C)C
AC50 [5]: > 30 µM | AC50 (Androgen receptor [1]): > 30 µM | AC50 (Androgen receptor [2]): > 30 µM

CCOC(=O)[C@H](CCc1ccccc1)N[C@@H](C)C(=O)N1CCC[C@H]1C(=O)O
AC50 [6]: > 10 µM | AC50 [7]: > 10 µM

Nc1nc(N)c2nc(-c3ccccc3)c(N)nc2n1
AC50 (Androgen receptor [8]): > 30 µM | AC50 [6]: > 10 µM | AC50 [9]: > 30 µM | AC50 (Androgen receptor [1]): > 3 µM | AC50 (Androgen receptor [2]): > 30 µM | AC50 [4]: > 30 µM | AC50 [7]: > 10 µM

C[C@H]1O[C@H](O[C@H]2[C@H](O)[C@@H](O)[C@@H](O[C@H]3[C@H](O)[C@@H](O)C(O)O[C@@H]3CO)O[C@@H]2CO)[C@H](O)[C@@H](O)[C@@H]1N[C@H]1C=C(CO)[C@@H](O)[C@H](O)[C@H]1O (some centres undefined) [ACARBOSE]
AC50 [6]: > 10 µM

CC(=O)c1ccc2c(c1)N(CCCN1CCN(CCO)CC1)c1ccccc1S2 [ACETOPHENAZINE]
AC50 (Estrogen receptor): 13 µM

Oc1ncnc2[nH]ncc12 [ALLOPURINOL]
AC50 [9]: > 30 µM | AC50 [4]: > 30 µM

CC(N)Cc1ccccc1 (centres undefined) [AMPHETAMINE]
AC50 (Androgen receptor [8]): > 30 µM | AC50 (Estrogen receptor): > 30 µM | AC50 (Androgen receptor [2]): > 30 µM

CN1CCCC(n2nc(Cc3ccc(Cl)cc3)c3ccccc3c2=O)CC1 (centres undefined) [AZELASTINE]
AC50 (Estrogen receptor): > 30 µM

O=C1c2c(O)c(=O)ccn2N([C@@H]2c3ccccc3SCc3c2ccc(F)c3F)[C@@H]2COCCN12 [BALOXAVIR]
AC50 [5]: > 50 µM

CC(C)NCC(O)COc1ccc(COCCOC(C)C)cc1 (centres undefined) [BISOPROLOL]
AC50 (Androgen receptor [8]): > 30 µM

COc1cc(Nc2c(C#N)cnc3cc(OCCCN4CCN(C)CC4)c(OC)cc23)c(Cl)cc1Cl [BOSUTINIB]
AC50 [6]: > 10 µM

COc1cc2c(cc1OC)C(=O)C(CC1CCN(Cc3ccccc3)CC1)C2 (centres undefined) [DONEPEZIL]
AC50 (Androgen receptor [8]): > 30 µM | AC50 [6]: > 10 µM

COC(=O)[C@@H]1CC2=CC(=O)CC[C@]2(C)[C@@]23O[C@@H]2C[C@@]2(C)[C@@H](CC[C@@]24CCC(=O)O4)[C@H]13 [EPLERENONE]
AC50 (Estrogen receptor): > 30 µM | AC50 [3]: > 30 µM | AC50 [4]: > 30 µM

C#C[C@]1(O)CC[C@H]2[C@@H]3CCc4cc(O)ccc4[C@H]3CC[C@@]21C [ETHINYL ESTRADIOL]
AC50 [6]: > 10 µM | AC50 [7]: > 30 µM | AC50 [10]: > 30 µM

NC(N)=Nc1nc(CSCCC(N)=NS(N)(=O)=O)cs1 [FAMOTIDINE]
AC50 [7]: > 10 µM

CC(C)C(=O)Nc1ccc([N+](=O)[O-])c(C(F)(F)F)c1 [FLUTAMIDE]
AC50 [9]: > 30 µM | AC50 [4]: > 30 µM

C[C@@H]1O[C@@H]1P(=O)(O)O [FOSFOMYCIN]
AC50 (Androgen receptor [8]): > 30 µM

COc1ccc2c(c1)C(=O)N(CCc1ccc(S(=O)(=O)NC(=O)NC3CCCCC3)cc1)C(=O)C2(C)C [GLIQUIDONE]
AC50 (Androgen receptor [1]): > 30 µM | AC50 (Androgen receptor [2]): > 30 µM | AC50 [10]: > 30 µM

NS(=O)(=O)c1cc2c(cc1Cl)NCNS2(=O)=O [HYDROCHLOROTHIAZIDE]
AC50 [6]: > 10 µM | AC50 [7]: > 10 µM

CC(C)Cc1ccc(CC(=O)O)cc1 [IBUFENAC]
AC50 [3]: > 30 µM | AC50 [4]: > 30 µM

CC(C)NNC(=O)c1ccncc1 [IPRONIAZID]
AC50 (Estrogen receptor): > 30 µM | AC50 (Androgen receptor [2]): > 30 µM | AC50 [3]: > 30 µM | AC50 [4]: > 30 µM

C[C@H]1C[C@@H]2[C@H]([C@@H](O)C[C@@]3(C)[C@H]2CC[C@]3(O)C(=O)CO)[C@@]2(C)C=CC(=O)C=C12 [METHYLPREDNISOLONE]
AC50 (Androgen receptor [8]): > 30 µM

Cc1cccc(C)c1OCC(C)N (centres undefined) [MEXILETINE]
AC50 [5]: > 50 µM

CCc1nn(CCCN2CCN(c3cccc(Cl)c3)CC2)c(=O)n1CCOc1ccccc1 [NEFAZODONE]
AC50 [6]: > 10 µM

CCc1ccc(CCOc2ccc(CC3SC(=O)NC3=O)cc2)nc1 (centres undefined) [PIOGLITAZONE]
AC50 [6]: > 10 µM

CC(C(=O)O)c1ccc(N2CC=CC2)c(Cl)c1 (centres undefined) [PIRPROFEN]
AC50 (Androgen receptor [8]): > 30 µM

CC[C@H](C)C(=O)O[C@H]1C[C@H](O)C=C2C=C[C@H](C)[C@H](CC[C@@H](O)C[C@@H](O)CC(=O)O)[C@H]21 [PRAVASTATIN]
AC50 (Estrogen receptor): > 30 µM

NC(=O)c1cnccn1 [PYRAZINAMIDE]
AC50 [9]: > 30 µM | AC50 [4]: > 30 µM

O=C(NC[C@H]1CN(c2ccc(N3CCOCC3=O)cc2)C(=O)O1)c1ccc(Cl)s1 [RIVAROXABAN]
AC50 [10]: > 30 µM

CC(C)OC(=O)[C@H](C)N[P@](=O)(OC[C@H]1O[C@@H](n2ccc(=O)[nH]c2=O)[C@](C)(F)[C@@H]1O)Oc1ccccc1 [SOFOSBUVIR]
AC50 [5]: > 50 µM

CS(=O)(=O)c1ccc([C@@H](O)[C@@H](CO)NC(=O)C(Cl)Cl)cc1 [THIAMPHENICOL]
AC50 [5]: > 50 µM

CCCS(=O)(=O)Nc1ccc(F)c(C(=O)c2c[nH]c3ncc(-c4ccc(Cl)cc4)cc23)c1F [VEMURAFENIB]
AC50 [5]: > 30 µM | AC50 (Androgen receptor [1]): > 30 µM | AC50 (Androgen receptor [2]): > 30 µM

OCc1cc([C@@H](O)CNCCCCCCOCCOCc2c(Cl)cccc2Cl)ccc1O [VILANTEROL]
AC50 (Estrogen receptor): > 30 µM | AC50 (Androgen receptor [2]): > 30 µM

CCOC(=O)N[C@@H]1CC[C@@H]2[C@@H](C1)C[C@H]1C(=O)O[C@H](C)[C@H]1[C@H]2/C=C/c1ccc(-c2cccc(F)c2)cn1 [VORAPAXAR]
AC50 [5]: > 50 µM

O=C(CCCCCCC(=O)Nc1ccccc1)NO [VORINOSTAT]
AC50 [6]: > 10 µM
